Test results from ChEMBL document CHEMBL5625245, “Novel ProTide prodrugs of 5-fluoro-2'-deoxyuridine for the treatment of liver cancer” (Eur J Med Chem, 2023).
Activity calls are given as the source filed them. No cut-off for these calls is given here.

Key:
[1] = test system: Bel-7402; assay: Antiproliferative activity against human Bel-7402 cells assessed as reduction in cell viability at 20 uM measured after 48 hrs by MTT assay relative to control; assay type: functional
[2] = test system: Bel-7402; assay: Antiproliferative activity against human Bel-7402 cells assessed as reduction in cell viability measured after 48 to 72 hrs by MTT assay; assay type: functional, cell-based
[3] = test system: HepG2; assay: Antiproliferative activity against human HepG2 cells assessed as reduction in cell viability measured after 48 to 72 hrs by MTT assay; assay type: functional, cell-based
[4] = Antiproliferative activity against human L02 cells assessed as reduction in cell viability measured after 48 to 72 hrs by MTT assay; assay type: toxicity, cell-based
[5] = Antiproliferative activity against human NCM460 cells assessed as reduction in cell viability measured after 48 to 72 hrs by MTT assay; assay type: toxicity, cell-based
[6] = test system: HepG2; assay: Antiproliferative activity against human HepG2 cells assessed as reduction in cell viability at 20 uM measured after 48 hrs by MTT assay relative to control; assay type: functional
[7] = test system: Bel-7402; assay: Antiproliferative activity against human Bel-7402 cells assessed as reduction in cell viability at 20 uM measured after 48 hrs by MTT assay; assay type: functional, cell-based
[8] = test system: HepG2; assay: Antitumor activity against human HepG2 cells xenografted in mouse model assessed as tumor growth inhibition at 150 mg/kg/day for 7 days relative to control; assay type: functional; details: HepG2, 168 h, time 7 day, read-out: TGI
[9] = test system: Bel-7402; assay: Antiproliferative activity against human Bel-7402 cells assessed as reduction in cell viability at 20 uM measured after 48 to 72 hrs in presence of 5-Fluorouracil by MTT assay; assay type: functional, cell-based; details: time 48-72 hrs
[10] = test system: HepG2; assay: Antiproliferative activity against human HepG2 cells assessed as reduction in cell viability at 20 uM measured after 48 to 72 hrs in presence of 5-Fluorouracil by MTT assay; assay type: functional, cell-based; details: time 48-72 hrs
[11] = test system: HepG2; assay: Antitumor activity against human HepG2 cells xenografted in mouse model assessed as tumor growth inhibition at 100 mg/kg/day for 7 days relative to control; assay type: functional; details: HepG2, 168 h, time 7 day, read-out: TGI
[12] = test system: HepG2; assay: Antitumor activity against human HepG2 cells xenografted in orthotopic mouse model assessed as average number of tumor at 60 mg/kg, iv administered twice daily for 18 days in presence of 5-Fluorouracil (reference value: 49+/3.6 mM); assay type: functional; details: time 18 day
[13] = test system: HepG2; assay: Antitumor activity against human HepG2 cells xenografted in orthotopic mouse model assessed as tumor growth inhibition at 60 mg/kg, iv administered twice daily for 18 days in presence of 5-Fluorouracil relative to control; assay type: functional; details: HepG2, 432 h, time 18 day, read-out: TGI
[14] = Toxicity in orthotopic mouse assessed as effect on body weight at 60 mg/kg, iv administered twice daily for 18 days; assay type: organism-based; details: in vivo, 432 h, time 18 day
[15] = Toxicity in orthotopic mouse assessed as effect on drug tolerance at 60 mg/kg, iv administered twice daily for 18 days; assay type: organism-based; details: in vivo, 432 h, time 18 day
[16] = Toxicity in orthotopic mouse assessed as effect on heart at 60 mg/kg, iv administered twice daily for 18 days by H and E staining based analysis; assay type: organism-based; details: in vivo, 432 h, time 18 day
[17] = Toxicity in orthotopic mouse assessed as effect on liver at 60 mg/kg, iv administered twice daily for 18 days by H and E staining based analysis; assay type: organism-based; details: in vivo, 432 h, time 18 day
[18] = Toxicity in orthotopic mouse assessed as effect on spleen at 60 mg/kg, iv administered twice daily for 18 days by H and E staining based analysis; assay type: organism-based; details: in vivo, 432 h, time 18 day
[19] = Toxicity in orthotopic mouse assessed as effect on lung at 60 mg/kg, iv administered twice daily for 18 days by H and E staining based analysis; assay type: organism-based; details: in vivo, 432 h, time 18 day
[20] = Toxicity in orthotopic mouse assessed as effect on kidney at 60 mg/kg, iv administered twice daily for 18 days by H and E staining based analysis; assay type: organism-based; details: in vivo, 432 h, time 18 day
[21] = Toxicity in orthotopic mouse assessed as change in liver weight at 60 mg/kg, iv administered twice daily for 18 days; assay type: organism-based; details: in vivo, 432 h, time 18 day

| Compound | Activity [1] [%] | IC50 [2] [µM] | IC50 [3] [µM] | IC50 [4] [µM] | IC50 [5] [µM] | Activity [6] [%] | further results |
| --- | --- | --- | --- | --- | --- | --- | --- |
| CC(C)OC(=O)[C@H](C)N[P@](=O)(OC[C@H]1O[C@@H](n2cc(F)c(=O)[nH]c2=O)C[C@@H]1OC(=O)[C@H](CC(=O)OC(C)(C)C)NC(=O)OC(C)(C)C)Oc1ccccc1 | >60 | 3.77 | 19.9 | > 100 | > 100 |  |  |
| CCC(C)[C@H](N)C(=O)O[C@H]1C[C@H](n2cc(F)c(=O)[nH]c2=O)O[C@@H]1CO[P@@](=O)(N[C@@H](C)C(=O)OC(C)C)Oc1ccccc1 (some centres undefined) |  | 9.11 | 15.2 | > 100 | > 100 | >50 | Activity [7]: Active |
| CC(C)C[C@H](NC(=O)CN)C(=O)O[C@H]1C[C@H](n2cc(F)c(=O)[nH]c2=O)O[C@@H]1CO[P@@](=O)(N[C@@H](C)C(=O)OC(C)C)Oc1ccccc1 | 50 |  |  |  |  | 50 |  |
| CC(C)OC(=O)[C@H](C)N[P@](=O)(OC[C@H]1O[C@@H](n2cc(F)c(=O)[nH]c2=O)C[C@@H]1OC(=O)[C@H](C)NC(=O)CN)Oc1ccccc1 | 50 |  |  |  |  | 50 |  |
| CC(C)OC(=O)[C@H](C)N[P@](=O)(OC[C@H]1O[C@@H](n2cc(F)c(=O)[nH]c2=O)C[C@@H]1OC(=O)[C@@H](N)CC(=O)O)Oc1ccccc1 |  |  |  |  |  |  | Activity [7]: Active |
| CC(C)OC(=O)[C@H](C)N[P@](=O)(OC[C@H]1O[C@@H](n2cc(F)c(=O)[nH]c2=O)C[C@@H]1OC(=O)[C@H](Cc1ccccc1)NC(=O)OC(C)(C)C)Oc1ccccc1 | >60 | 7.18 | 28.7 | > 100 | > 100 |  |  |
| CC(C)OC(=O)[C@H](C)N[P@](=O)(OC[C@H]1O[C@@H](n2cc(F)c(=O)[nH]c2=O)C[C@@H]1OC(=O)OC(C)(C)C)Oc1ccccc1 | 50 |  |  |  |  | 50 |  |
| CC(C)OC(=O)[C@H](C)N[P@](=O)(OC[C@H]1O[C@@H](n2cc(F)c(=O)[nH]c2=O)C[C@@H]1OC(=O)[C@H](Cc1ccccc1)NC(=O)[C@@H](NC(=O)OC(C)(C)C)C(C)C)Oc1ccccc1 |  | 13.2 | 34.1 | > 100 | > 100 |  |  |
| CC(C)OC(=O)[C@H](C)N[P@](=O)(OC[C@H]1O[C@@H](n2cc(F)c(=O)[nH]c2=O)C[C@@H]1OC(=O)[C@@H](N)Cc1ccccc1)Oc1ccccc1 |  |  |  |  |  |  | Activity [7]: Active |
| CC(C)C[C@H](N)C(=O)O[C@H]1C[C@H](n2cc(F)c(=O)[nH]c2=O)O[C@@H]1CO[P@@](=O)(N[C@@H](C)C(=O)OC(C)C)Oc1ccccc1 |  |  |  |  |  |  | Activity [7]: Active |
| CC(C)OC(=O)[C@H](C)N[P@](=O)(OC[C@H]1O[C@@H](n2cc(F)c(=O)[nH]c2=O)C[C@@H]1OC(=O)CN)Oc1ccccc1 |  |  |  |  |  |  | Activity [7]: Active |
| CCC(C)[C@H](NC(=O)OC(C)(C)C)C(=O)O[C@H]1C[C@H](n2cc(F)c(=O)[nH]c2=O)O[C@@H]1CO[P@@](=O)(N[C@@H](C)C(=O)OC(C)C)Oc1ccccc1 (some centres undefined) | >60 | 8.99 | 48.7 | > 100 | > 100 |  |  |
| CC(C)C[C@H](NC(=O)OC(C)(C)C)C(=O)NCC(=O)O[C@H]1C[C@H](n2cc(F)c(=O)[nH]c2=O)O[C@@H]1CO[P@@](=O)(N[C@@H](C)C(=O)OC(C)C)Oc1ccccc1 | 50 |  |  |  |  | 50 |  |
| CC(C)C[C@H](NC(=O)OC(C)(C)C)C(=O)O[C@H]1C[C@H](n2cc(F)c(=O)[nH]c2=O)O[C@@H]1CO[P@@](=O)(N[C@@H](C)C(=O)OC(C)C)Oc1ccccc1 | >60 | 9.68 | 21.2 | > 100 | > 100 |  |  |
| CC(C)C[C@H](NC(=O)CNC(=O)OC(C)(C)C)C(=O)O[C@H]1C[C@H](n2cc(F)c(=O)[nH]c2=O)O[C@@H]1CO[P@@](=O)(N[C@@H](C)C(=O)OC(C)C)Oc1ccccc1 |  |  |  |  |  | >50 |  |
| CC(C)OC(=O)[C@H](C)N[P@](=O)(OC[C@H]1O[C@@H](n2cc(F)c(=O)[nH]c2=O)C[C@@H]1OC(=O)[C@H](C)N)Oc1ccccc1 |  |  |  |  |  |  | Activity [7]: Active |
| Cc1ccccc1CO[P@](=O)(N[C@@H](C)C(=O)OC(C)C)OC[C@H]1O[C@@H](n2cc(F)c(=O)[nH]c2=O)C[C@@H]1O |  | 0.73 | 0.59 | > 100 | > 100 |  |  |
| CC(C)OC(=O)[C@H](C)N[P@](=O)(OC[C@H]1O[C@@H](n2cc(F)c(=O)[nH]c2=O)C[C@@H]1OC(=O)CNC(=O)OC(C)(C)C)Oc1ccccc1 | >60 | 10.1 | 17.5 | > 100 | > 100 | >50 |  |
| CC(C)C[C@H](N)C(=O)NCC(=O)O[C@H]1C[C@H](n2cc(F)c(=O)[nH]c2=O)O[C@@H]1CO[P@@](=O)(N[C@@H](C)C(=O)OC(C)C)Oc1ccccc1 | 50 |  |  |  |  | 50 |  |
| CC(C)OC(=O)[C@H](C)N[P@](=O)(OC[C@H]1O[C@@H](n2cc(F)c(=O)[nH]c2=O)C[C@@H]1O)Oc1ccccc1 |  | 18.2 | 36.2 | > 100 | > 100 |  | inhibition in vivo at 150 mg/kg/day [8]: 68%; Activity [9]: Active; Activity [10]: Active; inhibition in vivo at 100 mg/kg/day [11]: 52%; tumour count [12]: 21; inhibition in vivo at 60 mg/kg [13]: 57.1%; Activity [14]: Non-Toxic; Activity [15]: Non-Toxic; Activity [16]: Non-Toxic; Activity [17]: Non-Toxic; Activity [18]: Non-Toxic; Activity [19]: Non-Toxic; Activity [20]: Non-Toxic; Activity [21]: Toxic |
| CC(C)OC(=O)[C@H](C)N[P@](=O)(OC[C@H]1O[C@@H](n2cc(F)c(=O)[nH]c2=O)C[C@@H]1OC(=O)[C@H](Cc1ccccc1)NC(=O)[C@@H](N)C(C)C)Oc1ccccc1 | 50 |  |  |  |  | 50 |  |
| CC(C)OC(=O)[C@H](C)N[P@](=O)(OC[C@H]1O[C@@H](n2cc(F)c(=O)[nH]c2=O)C[C@@H]1OC(=O)[C@H](C)NC(=O)CNC(=O)OC(C)(C)C)Oc1ccccc1 | 50 |  |  |  |  | 50 |  |
| C[C@H](N[P@](=O)(OC[C@H]1O[C@@H](n2cc(F)c(=O)[nH]c2=O)C[C@@H]1O)Oc1cccc2ccccc12)C(=O)OCc1ccccc1 | <10 | > 100 | > 100 | > 100 | > 100 | <10 |  |
